{"source": "patent US4931429A", "about": "“α-aminoacyl β-aminoacyl aminodiols as anti-hypertensive agents” (G. D. Searle & Co., priority 1987, dated 1990)", "key": {"Human renin": {"biological_target": "T1, Human renin (Homo sapiens, UniProt P00797)", "T1 construct": "purchased National Institute for Biological Standards, London", "T1 sequence (P00797 67-406)": "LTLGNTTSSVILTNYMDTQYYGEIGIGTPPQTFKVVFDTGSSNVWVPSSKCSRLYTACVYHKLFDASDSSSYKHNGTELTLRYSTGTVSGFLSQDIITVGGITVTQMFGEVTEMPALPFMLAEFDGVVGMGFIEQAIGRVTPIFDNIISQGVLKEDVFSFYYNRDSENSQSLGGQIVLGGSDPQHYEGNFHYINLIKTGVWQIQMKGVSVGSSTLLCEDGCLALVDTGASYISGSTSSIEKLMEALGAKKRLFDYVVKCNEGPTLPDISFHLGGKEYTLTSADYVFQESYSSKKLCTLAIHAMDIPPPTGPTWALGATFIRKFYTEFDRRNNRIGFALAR", "assay": "human renin inhibition test", "assay_type": "biochemical", "settings": "human plasma substrate, pH 7.4, two hours at 37° C., angiotensin I by radioimmunoassay", "experimental": "The human renin inhibition test has been previously described in detail in papaioannou, et al. (1985) Clinical and Experimental Hypertension A7(9), 1243-1257. Human renin was obtained from the National Institute for Biological Standards, London. In a total volume of 0.25 mL 100 mM Tris-acetate buffer at pH 7.4, 25 x 10-6 Goldblatt units of renin, 0.05 mL of plasma from human volunteers taking oral contraceptives, 6.0 mM sodium EDTA, 2.4 mM phenylmethyl sulfonyl fluoride, 1.5 mM 8-hydroxyquinoline, 0.4 mg/mL BSA, and 0.024 mg/mL neomycin sulfate were incubated for two hours at 37° C. in the presence or absence of renin inhibitors. The produced angiotensin I was determined by radioimmunoassay (New England Nuclear kit). Compounds of Formula I to be assayed were solubilized in either ethyl alcohol or DMSO and diluted with 100 mM Tris-acetate buffer at pH 7.4 to the appropriate concentration. The final concentration of organic solvent in the reaction mixture was less than 1%. Control incubations at 37° C. were used to correct for effects of organic solvent on renin activity."}, "Hog renin": {"test_system": "Hog renin", "assay": "hog renin inhibition assay", "assay_type": "biochemical", "settings": "synthetic tetradecapeptide substrate, pH 7.4, one hour at 37° C., angiotensin I by radioimmunoassay", "experimental": "The hog renin inhibition assay was performed in a manner similar to the human renin assay, with the following modifications. Hog renin was purchased from Sigma Chemical Co. and the synthetic tetradecapeptide substrate was obtained from Peninsula Labs Inc. In a final volume of 0.25 mL 100 mM Tris-acetate buffer at pH 7.4, 0.125m units hog renin, 20 micromolar tetradecapetide, 6 mM disodium EDTA, 3.2 mM phenylmethyl sulfonyl fluoride, 3 mM 8-hydroxyquinoline, 1.2 mg/mL BSA and 0.024 mg/mL neomycin sulfate were incubated for one hour at 37° C. in the presence or absence of renin inhibitors. The amount of angiotensin I produced was determined as for the human renin inhibition assay."}}, "note": "pIC50: −log10 of the molar value.", "data": [{"smiles": "CC(CNC(=O)[C@H](Cc1ccccc1)NC(=O)OC(C)(C)C)C(=O)N[C@@H](CC1CCCCC1)[C@@H](O)CO", "note": "(stereo partly drawn) [Example 8, Boc-L-phenylalaninyl-D,L-α-methyl-β-alaninamide of (2S,3R)-2-amino-1-cylohexyl-3,4-dihydroxybutane]", "values": [{"measurement": "pIC50", "setting": "Human renin", "value": 5.70}, {"measurement": "pIC50", "setting": "Hog renin", "value": 5.68}]}, {"smiles": "CC(C)C[C@H](O)[C@H](O)[C@H](CC1CCCCC1)NC(=O)C(C)CNC(=O)[C@H](Cc1ccccc1)NC(=O)OC(C)(C)C", "note": "(stereo partly drawn) [Example 9, Boc-L-phenylalaninyl-D,L-α-methyl-β-alaninamide of (2S,3R,4S)-2-amino-1-cyclohexyl-3,4-dihydroxy-6-methylheptane]", "values": [{"measurement": "pIC50", "setting": "Human renin", "value": 6.68}, {"measurement": "pIC50", "setting": "Hog renin", "value": 7.90}]}]}
